Results from patent US6488966B2, “Composition and method for reducing the risk of carcinogenesis” (The Trustees of Dartmouth College, priority 1998, dated 2002).
Read-outs that look alike come from different tables or passages of the source.

What was measured:
[1] = Description: (§1) We reviewed data from 2,918 apparently eligible patients. […] The trial was double-blind; neither subjects nor study staff were told the subjects' treatment assignments.
At enrollment and at the time of each of the two follow-up colonoscopies, we obtained venous blood specimens in mineral-free tubes. Serum was initially stored at −20° C. or lower, pending shipment to Dartmouth for storage at −70° C. until analysis. At enrollment and the end of the study, we also assessed subjects' diet with a validated food frequency questionnaire (Block et al., Am. J. Epidemiol., 124:453-69, 1986). Every six months, we sent patients questionnaires regarding adherence to study agents; use of medications, over-the-counter drugs and nutritional supplements; and the occurrence of symptoms, illnesses, and hospitalizations. Recruitment into the study began in November 1988 and ended in April 1992. Follow-up ended in December 1996.
(§2) For our statistical analyses, we compared proportions using Fisher's exact test, and measured data using t-tests or rank tests (Snedecor and Cochran, Statistical Methods, Seventh Edition, Ames: Iowa State University Press, 1980). […] To address the first issue, we used overdispersed log-linear quasi-likelihood models programmed in SPlus (Seattle) to provide unadjusted and adjusted estimates and confidence intervals for the relative risk of at least one recurrent adenoma (McCullagh and Nelder, Generalized Linear Models (Second Edition), Chapman-Hall, 1989). […] Co-variates included age (linear term), gender, the lifetime number of adenomas before study entry, clinical center, and the length of the surveillance interval. Possible interactions were considered using product interaction terms. Subgroup analyses included investigation of subjects above and below the median of the calorie-adjusted intake (Willet, Nutritional Epidemiology, Oxford University Press, 1990) of selected nutrients. […] All P-values were two-sided.

[2] = test system: colorectal adenomas
Source text: Dartmouth was the coordinating center and the University of Minnesota was the pathology center. Human subjects committees at each center approved the study protocol; an independent safety and data monitoring committee reviewed the study semi-annually.
Staff at each clinical center monitored colonoscopy and pathology records at associated endoscopy units to identify patients with at least one histologically-confirmed large bowel adenoma removed within three months of recruitment, and with the entire large bowel mucosa subsequently examined and judged free of remaining polyps.
as §1
Subjects received two follow-up colonoscopies as part of their routine clinical care, generally by the same physician who conducted the qualifying exam. The first follow-up examination was planned for approximately one year after the qualifying colonoscopy (about nine months after randomization), and a second follow-up examination was planned for thirty-six months after that. Large bowel endoscopy was otherwise discouraged unless clinically indicated (e.g., for rectal bleeding). Follow-up examinations were considered “adequate” if the entire large bowel mucosa was visualized, and no polyps remained at the end of the procedure. We designated the time from randomization to the first follow-up exam as the first study interval, and the period after the first follow-up exam up to (and including) the second follow-up colonoscopy as the second study interval.
At each colonoscopy, the endoscopist recorded the size and location of all mucosal lesions, using standard clinical technique. […] In cases of disagreement, we accepted the study pathologist's diagnosis.
The primary endpoint of the trial was the proportion of subjects having at least one adenoma detected during the second study interval, i.e., after the first follow-up colonoscopy, up to and including the second follow-up examination (including adenomas detected during interim endoscopies).
as §2

[3] = at least one endoscopy, study exams
[4] = at or before the first follow-up
[5] = calcium vs placebo, 913 subjects with at least one study colonoscopy
[6] = calcium vs placebo, completed the study, 2nd study interval
[7] = calcium vs placebo, completed the trial, first study interval
[8] = calcium vs placebo, second study interval
[9] = completed the study, 1st or 2nd study interval
[10] = completed the study, 1st study exam
[11] = completed the study, 2nd study exam
[12] = completed the study, 2nd study interval (main risk period)

O=C([O-])[O-].[Ca+2] [calcium, calcium carbonate]
Hospitalized: All cancer, % ([1]; after randomization): (3.2) % | Hospitalized: Cardiac disease, % ([1]; after randomization): (10.8) % | Hospitalized: Gastrointestinal disease, % ([1]; after randomization): (8.2) % | Hospitalized: Other, % ([1]; after randomization): (27.2) % | Hospitalized: Stroke, % ([1]; after randomization): (2.6) % | Stopped treatment because of perceived toxicity, % ([1]; after randomization): (2.6) % | patients diagnosed with definite or probable urinary stones ([1]; after randomization): Two | Subjects Hospitalized, % ([1]; after randomization, any reason): (37.1) % | toxicity (in words) ([1]; calcium supplementation during the trial, listed as calcium carbonate): minimal | frequency of digestive symptoms (including constipation) ([1]; calcium vs placebo): did not differ materially | medical complaints and complications (in words) ([1]; calcium vs placebo): not associated with treatment assignment | Mean number of adenomas ([2]; at least one endoscopy, 1st or 2nd interval): 0.92 | % with one or more adenomas [2, 3]: 42.3% | Mean number of adenomas [2, 3]: 0.86 | participants with an adenoma with severe atypia removed [2, 4]: one | patients with invasive cancer [2, 4]: 2 | Ratio of the mean number of adenomas ([2]; calcium vs placebo, adjusted, completed the study (832 subjects), 2nd study interval): 0.76 | unadjusted ratio of the average numbers of adenomas [2, 5]: 0.74 | unadjusted risk ratio of at least one adenoma after randomization [2, 5]: 0.85 | unadjusted ratio of the average number of adenomas [2, 6]: 0.75 | unadjusted risk ratio for at least one adenoma [2, 6]: 0.83 | unadjusted ratio of the average numbers of adenomas [2, 7]: 0.73 | unadjusted risk ratio for at least one adenoma [2, 7]: 0.77 | unadjusted risk ratio for at least one adenoma 0.5 cm or greater versus no adenomas [2, 8]: 0.87 | unadjusted risk ratio, largest adenoma less than 0.5 cm versus no adenomas [2, 8]: 0.75 | % with one or more adenomas [2, 9]: 44.7% | Mean number of adenomas [2, 9]: 0.98 | % with one or more adenomas [2, 10]: 24.4% | Mean number of adenomas [2, 10]: 0.40 | Mean number of adenomas ([2]; completed the study, 1st study interval): 0.43 | % with one or more adenomas [2, 11]: 30.1% | Mean number of adenomas [2, 11]: 0.51 | mean size of the largest adenoma ([2]; completed the study, 2nd study interval): 0.4 cm | % with one or more adenomas [2, 12]: 31.1% | Mean number of adenomas [2, 12]: 0.55 | % with one or more adenomas ([2]; completed the study, 2nd study interval (main risk period), listed as CALCIUM): 31.1% | number of patients with at least one colorectal adenoma ([2]; completed the study, main risk period (2nd study interval)): 127 | number of subjects with at least one adenoma ([2]; completed the trial, up to and including the first follow-up exam): 103 | adenomas with severe atypia removed ([2]; during the main risk period): no adenomas with severe atypia were removed | subjects with invasive large bowel cancer ([2]; during the main risk period): 1 | subjects whose largest adenoma was less than 0.5 cm ([2]; second study interval): 70 | subjects with an adenoma 0.5 cm or greater ([2]; second study interval): 57 | % with one or more adenomas ([2]; subjects who completed the study (409 calcium), 1st study interval (randomization to first follow-up colonoscopy)): 25% | % with one or more adenomas ([2]; subjects who completed the study (409 calcium), 1st study interval (randomization to first follow-up colonoscopy), listed as CALCIUM): 25.2% | % with one or more adenomas ([2]; subjects who had at least one endoscopy (454 calcium), 1st or 2nd interval): 43.2%
